Measured values reported in ChEMBL document CHEMBL1143804, “Synthesis and antibacterial evaluation of 1beta-methyl-2-[5-(1-methoxyimino-2-substituted sulfonamide ethyl)pyrrolidin-3-ylthio]carbapenems and their related compounds” (2007).
Values after ≈ are worked out from the molar mass of the structure shown.

Experiments:
Escherichia coli [1] = assay: Antibacterial activity against Escherichia coli TEM; format: functional
Streptococcus pyogenes [2] = assay: Antibacterial activity against Streptococcus pyogenes 308A; format: functional
Streptococcus pyogenes [3] = assay: Antibacterial activity against Streptococcus pyogenes 77A; format: functional
Staphylococcus aureus [4] = assay: Antibacterial activity against Staphylococcus aureus 285; format: functional
Staphylococcus aureus [5] = assay: Antibacterial activity against Staphylococcus aureus SG511; format: functional
Salmonella typhimurium = assay: Antibacterial activity against Salmonella Typhimurium; format: functional, Salmonella enterica subsp. enterica serovar Typhimurium; details: Salmonella enterica
Klebsiella aerogenes = assay: Antibacterial activity against Klebsiella aerogenes 1522E; format: functional
Pseudomonas aeruginosa [6] = assay: Antibacterial activity against Pseudomonas aeruginosa 9027; format: functional
Escherichia coli [7] = assay: Antibacterial activity against Escherichia coli DC2; format: functional
Enterobacter cloacae [8] = assay: Antibacterial activity against Enterobactor cloacae 1321E; format: functional
Staphylococcus aureus [9] = assay: Antibacterial activity against Staphylococcus aureus 503; format: functional
Pasteurella multocida = assay: Antibacterial activity against Pasteurella multocida; format: functional
[10] = tested on: Corynebacterium diphtheriae; assay: Antibacterial activity against Corynebacterium diphtheriae; format: functional
Proteus vulgaris = assay: Antibacterial activity against Proteus vulgaris 868; format: functional
Proteus mirabilis [11] = assay: Antibacterial activity against Proteus mirabilis 112/3; format: functional
Enterobacter cloacae [12] = assay: Antibacterial activity against Enterobacter cloacae 417; format: functional
Escherichia coli [13] = assay: Antibacterial activity against Escherichia coil V6311/65; format: functional
Escherichia coli [14] = assay: Antibacterial activity against Escherichia coli 086; format: functional
Streptococcus agalactiae = assay: Antibacterial activity against Streptococcus agalactiae B; format: functional
Salmonella = assay: Antibacterial activity against Salmonella orion; format: functional
Enterococcus durans = assay: Antibacterial activity against Streptococcus durans D; format: functional
Pseudomonas aeruginosa [15] = assay: Antibacterial activity against Pseudomonas aeruginosa 880/2; format: functional
Escherichia coli [16] = assay: Antibacterial activity against Escherichia coli 0126; format: functional
Klebsiella pneumoniae = assay: Antibacterial activity against Klebsiella pneumonise 477; format: functional
Micrococcus luteus = assay: Antibacterial activity against Micrococcus luteus ATCC 9341; format: functional
Staphylococcus aureus [17] = assay: Antibacterial activity against Staphylococcus aureus 209P; format: functional
Proteus mirabilis [18] = assay: Antibacterial activity against Proteus mirabilis 174/3; format: functional
[19] = Antibacterial activity against Salmonella give; format: functional, Salmonella enterica subsp. enterica serovar Give; details: Salmonella enterica
Providencia rettgeri [20] = assay: Antibacterial activity against Proteus rettgeri 937; format: functional
Serratia marcescens [21] = assay: Antibacterial activity against Serratia marcescens 14273; format: functional
Burkholderia cepacia = assay: Antibacterial activity against Pseudomonas cepacia; format: functional
[22] = Antibacterial activity against Salmonella oranienberg; format: functional, Salmonella enterica subsp. enterica serovar Oranienburg; details: Salmonella enterica
Serratia marcescens [23] = assay: Antibacterial activity against Serratia marcescens 370; format: functional
Bacillus subtilis = assay: Antibacterial activity against Bacillus subtilts ATCC 6633; format: functional
Staphylococcus aureus [24] = assay: Antibacterial activity against Staphylococcus aureus giorgio; format: functional
Providencia rettgeri [25] = assay: Antibacterial activity against Proteus rettgeri 936; format: functional
Pseudomonas aeruginosa [26] = assay: Antibacterial activity against Pseudomonas aeruginosa 77/2; format: functional
Escherichia coli [27] = assay: Antibacterial activity against Escherichia coli 0114; format: functional
Enterococcus faecium = assay: Antibacterial activity against Streptococcus faecium 77A; format: functional
Trueperella pyogenes = assay: Antibacterial activity against Corynebacterium pyogenes; format: functional
Enterobacter cloacae [28] = assay: Antibacterial activity against Enterobacter cloacae; format: functional
Salmonella typhi = assay: Antibacterial activity against Salmonella typhi; format: functional, Salmonella enterica subsp. enterica serovar Typhi; details: Salmonella enterica
Serratia marcescens [29] = assay: Antibacterial activity against Serratia marcescens 6093; format: functional
Priestia megaterium = assay: Antibacterial activity against Bacillus megaterium; format: functional
Pseudomonas aeruginosa [30] = assay: Antibacterial activity against Pseudomonas aeruginosa 110/2; format: functional
Escherichia coli [31] = assay: Antibacterial activity against Escherichia coil 1507; format: functional

## CO/N=C(\CN)[C@@H]1C[C@H](SC2=C(C(=O)O)N3C(=O)[C@H]([C@@H](C)O)[C@H]3[C@H]2C)CN1
Escherichia coli [1]
  MIC: 0.195 µg/mL (≈ 0.489 µM)
Streptococcus pyogenes [2]
  MIC: < 0.01 µg/mL
Streptococcus pyogenes [3]
  MIC: < 0.01 µg/mL
Staphylococcus aureus [4]
  MIC: 0.195 µg/mL (≈ 0.489 µM)
Staphylococcus aureus [5]
  MIC: 0.098 µg/mL (≈ 0.246 µM)
Salmonella typhimurium
  MIC: 0.098 µg/mL (≈ 0.246 µM)
Klebsiella aerogenes
  MIC: 0.195 µg/mL (≈ 0.489 µM)
Pseudomonas aeruginosa [6]
  MIC: 3.12 µg/mL (≈ 7.83 µM)
Escherichia coli [7]
  MIC: 0.049 µg/mL (≈ 0.123 µM)
Enterobacter cloacae [8]
  MIC: 0.098 µg/mL (≈ 0.246 µM)

## CCCNS(=O)(=O)NC/C(=N\OC)[C@@H]1C[C@H](SC2=C(C(=O)O)N3C(=O)[C@H]([C@@H](C)O)[C@H]3[C@H]2C)CN1
Escherichia coli [1]
  MIC: 0.195 µg/mL (≈ 0.375 µM)
Streptococcus pyogenes [2]
  MIC: 0.049 µg/mL (≈ 0.0943 µM)
Streptococcus pyogenes [3]
  MIC: 0.025 µg/mL (≈ 0.0481 µM)
Staphylococcus aureus [4]
  MIC: 0.195 µg/mL (≈ 0.375 µM)
Staphylococcus aureus [5]
  MIC: 0.195 µg/mL (≈ 0.375 µM)
Salmonella typhimurium
  MIC: 0.098 µg/mL (≈ 0.189 µM)
Klebsiella aerogenes
  MIC: 0.195 µg/mL (≈ 0.375 µM)
Pseudomonas aeruginosa [6]
  MIC: 12.5 µg/mL (≈ 24.1 µM)
Escherichia coli [7]
  MIC: 0.098 µg/mL (≈ 0.189 µM)
Enterobacter cloacae [8]
  MIC: 0.195 µg/mL (≈ 0.375 µM)

## CNS(=O)(=O)NC/C(=N\OC)[C@@H]1C[C@H](SC2=C(C(=O)O)N3C(=O)[C@H]([C@@H](C)O)[C@H]3[C@H]2C)CN1
Staphylococcus aureus [9]
  MIC: 0.03 µg/mL (≈ 0.061 µM)
Pasteurella multocida
  MIC: 0.05 µg/mL (≈ 0.102 µM)
[10]
  MIC: 0.01 µg/mL (≈ 0.0203 µM)
Proteus vulgaris
  MIC: 0.4 µg/mL (≈ 0.814 µM)
Proteus mirabilis [11]
  MIC: 0.2 µg/mL (≈ 0.407 µM)
Enterobacter cloacae [12]
  MIC: 0.05 µg/mL (≈ 0.102 µM)
Escherichia coli [13]
  MIC: 0.05 µg/mL (≈ 0.102 µM)
Escherichia coli [14]
  MIC: 0.03 µg/mL (≈ 0.061 µM)
Streptococcus agalactiae
  MIC: 0.03 µg/mL (≈ 0.061 µM)
Salmonella
  MIC: 0.1 µg/mL (≈ 0.203 µM)
Enterococcus durans
  MIC: 0.1 µg/mL (≈ 0.203 µM)
Pseudomonas aeruginosa [15]
  MIC: 0.4 µg/mL (≈ 0.814 µM)
Escherichia coli [16]
  MIC: 0.03 µg/mL (≈ 0.061 µM)
Klebsiella pneumoniae
  MIC: 0.03 µg/mL (≈ 0.061 µM)
Escherichia coli [1]
  MIC: 0.025 µg/mL (≈ 0.0509 µM)
Micrococcus luteus
  MIC: 0.01 µg/mL (≈ 0.0203 µM)
Staphylococcus aureus [17]
  MIC: 0.03 µg/mL (≈ 0.061 µM)
Proteus mirabilis [18]
  MIC: 0.2 µg/mL (≈ 0.407 µM)
[19]
  MIC: 0.1 µg/mL (≈ 0.203 µM)
Streptococcus pyogenes [2]
  MIC: < 0.01 µg/mL
Providencia rettgeri [20]
  MIC: 0.4 µg/mL (≈ 0.814 µM)
Streptococcus pyogenes [3]
  MIC: < 0.01 µg/mL
Serratia marcescens [21]
  MIC: 0.4 µg/mL (≈ 0.814 µM)
Burkholderia cepacia
  MIC: 0.4 µg/mL (≈ 0.814 µM)
[22]
  MIC: 0.2 µg/mL (≈ 0.407 µM)
Serratia marcescens [23]
  MIC: 0.2 µg/mL (≈ 0.407 µM)
Staphylococcus aureus [4]
  MIC: 0.098 µg/mL (≈ 0.199 µM)
Bacillus subtilis
  MIC: 0.03 µg/mL (≈ 0.061 µM)
Staphylococcus aureus [24]
  MIC: 0.03 µg/mL (≈ 0.061 µM)
Providencia rettgeri [25]
  MIC: 0.4 µg/mL (≈ 0.814 µM)
Pseudomonas aeruginosa [26]
  MIC: 1.56 µg/mL (≈ 3.17 µM)
Staphylococcus aureus [5]
  MIC: 0.049 µg/mL (≈ 0.0997 µM)
Escherichia coli [27]
  MIC: 0.03 µg/mL (≈ 0.061 µM)
Enterococcus faecium
  MIC: < 0.01 µg/mL
Salmonella typhimurium
  MIC: 0.025 µg/mL (≈ 0.0509 µM)
Klebsiella aerogenes
  MIC: 0.025 µg/mL (≈ 0.0509 µM)
Trueperella pyogenes
  MIC: 0.01 µg/mL (≈ 0.0203 µM)
Enterobacter cloacae [28]
  MIC: 0.01 µg/mL (≈ 0.0203 µM)
Salmonella typhi
  MIC: 0.03 µg/mL (≈ 0.061 µM)
Pseudomonas aeruginosa [6]
  MIC: 1.56 µg/mL (≈ 3.17 µM)
Escherichia coli [7]
  MIC: 0.013 µg/mL (≈ 0.0264 µM)
Serratia marcescens [29]
  MIC: 0.2 µg/mL (≈ 0.407 µM)
Priestia megaterium
  MIC: 0.05 µg/mL (≈ 0.102 µM)
Pseudomonas aeruginosa [30]
  MIC: 0.8 µg/mL (≈ 1.63 µM)
Escherichia coli [31]
  MIC: 0.05 µg/mL (≈ 0.102 µM)
Enterobacter cloacae [8]
  MIC: 0.013 µg/mL (≈ 0.0264 µM)
